What was measured:
Type in all cases: in vivo
Parameters in all cases: key: 0: no effect; 10-25% kill; 26-35% kill; 36-45% kill; 46-55% kill; 56-65% kill; 66-75% kill; 76-85% kill; 86-99% kill; 9: 100% kill
[1] = system: Tetranychus urticae (OP-resistant strain), 2-spotted spider mite; assay: 2-spotted spider mite test, dipped infested limabean plants
Procedure, shortened: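 Compound dissolved at 10,000 ppm in 35% aqueous acetone, then water-diluted; limabean primary leaves carrying ~100 OP-resistant mites each are dipped 3 s and dried. Adult mortality read on one leaf after 2 days, eggs/newly emerged nymphs on another after 5 days, scored by rating scale.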

[2] = system: Spodoptera eridania, 3rd instar larvae, southern armyworm; assay: Southern armyworm 3rd instar test, dipped limabean leaf; conditions: for ARMYWORM Day 3: rating at 3 days; for ARMYWORM Day 5: rating at 5 days
Procedure, shortened: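 Ten 3rd instar larvae fed on limabean leaves that had been dipped for 3 s in test solution and dried. Test solutions were diluted in water from a 10,000 ppm stock in 35% acetone/water. Ratings at days 3 and 5 covered death, feeding reduction and abnormal molting.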

[3] = system: Aphis fabae, mixed instar, bean aphid; assay: Bean aphid spray test on nasturtium; conditions: 100 ppm
Procedure, shortened: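 Mortality rated on a scale 2 days after treatment of aphid-infested (100-200 per plant, infested a day earlier) ~5 cm nasturtiums sprayed to complete coverage. Spray solutions: 10,000 ppm compound in 35% acetone in water, with further water dilutions.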

[4] = system: Empoasca abrupta, adult, western potato leafhopper; assay: Western potato leafhopper contact test, dipped limabean leaf
Procedure, shortened: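 Sieva limabean leaf dipped 3 s in compound solution (diluted in water from 10,000 ppm stock in 35% acetone), dried, and infested with about 10 adult leafhoppers on moist filter paper. Mortality counted after 2 days and scored on a rating scale.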

[5] = spray, mortality rating after 2 days
[6] = 10 ppm, mortality rating after 2 days
[7] = 100 ppm, mortality rating after 2 days
[8] = 300 ppm, mortality rating after 2 days
[9] = 300 ppm, adult mites, rating scale 0-9
[10] = 300 ppm, mite eggs, rating scale 0-9
[11] = 300 ppm, mite nymphs, rating scale 0-9
[12] = 100 ppm, contact, rating scale 0-9
[13] = 10 ppm, mite eggs, rating scale 0-9
[14] = 10 ppm, mite nymphs, rating scale 0-9
[15] = 100 ppm, mite eggs, rating scale 0-9
[16] = 10 ppm, adult mites, rating scale 0-9
[17] = 100 ppm, adult mites, rating scale 0-9
[18] = 100 ppm, mite nymphs, rating scale 0-9

Row | SMILES | OP-RESISTANT MITES Egg ([1]; 10 ppm, rating after 5 days) | OP-RESISTANT MITES Egg ([1]; 100 ppm, rating after 5 days) | OP-RESISTANT MITES Egg ([1]; 300 ppm, rating after 5 days) | ARMYWORM Day 3 ([2]; 10 ppm) | ARMYWORM Day 5 ([2]; 10 ppm) | ARMYWORM Day 3 ([2]; 100 ppm) | ARMYWORM Day 5 ([2]; 100 ppm) | ARMYWORM Day 3 ([2]; 1000 ppm) | ARMYWORM Day 5 ([2]; 1000 ppm) | APHIDS [3, 5] | OP-RESISTANT MITES Adult [1, 9] | OP-RESISTANT MITES Egg [1, 10] | OP-RESISTANT MITES Nymph [1, 11] | LEAFHOPPER Contact [4, 12] | APHIDS ([3]; rating scale 0-9) | OP-RESISTANT MITES Egg [1, 13] | OP-RESISTANT MITES Nymph [1, 14] | OP-RESISTANT MITES Egg [1, 15] | OP-RESISTANT MITES Adult [1, 16] | OP-RESISTANT MITES Adult [1, 17] | also measured
1 | CN=C(NC)SCn1c(-c2ccc(Cl)cc2)c(C#N)c(Cl)c1C(F)(F)F [Example 2] | 0 | 9 (100% kill) | 0 | 9 (100% kill) | 9 (100% kill) | 9 (100% kill) | 9 (100% kill) | 9 (100% kill) | 9 (100% kill) | 0 |  |  |  |  |  |  |  |  |  |  | 
2 | CN(C)C(=S)SCn1c(-c2ccc(Cl)cc2)c(C#N)c(Cl)c1C(F)(F)F [Example 21] | 0 | 8 (86-99% kill) | 0 | 9 (100% kill) | 9 (100% kill) | 9 (100% kill) | 9 (100% kill) | 9 (100% kill) | 9 (100% kill) | 0 |  |  |  |  |  |  |  |  |  |  | OP-RESISTANT MITES Adult [1, 6]: 9 (100% kill); OP-RESISTANT MITES Nymph ([1]; 10 ppm, rating after 5 days): 0; OP-RESISTANT MITES Adult [1, 7]: 9 (100% kill); OP-RESISTANT MITES Nymph ([1]; 100 ppm, rating after 5 days): 0; OP-RESISTANT MITES Adult [1, 8]: 9 (100% kill); OP-RESISTANT MITES Nymph ([1]; 300 ppm, rating after 5 days): 9 (100% kill)
3 | CN=C(NC)SCn1c(Br)c(Br)c(C#N)c1Br [Example 14] |  |  |  | 0 | 0 | 9 (100% kill) | 9 (100% kill) | 9 (100% kill) | 9 (100% kill) |  | 0 | 0 | 0 | 0 | 0 |  |  |  |  |  | 
4 | CCOC(=S)SCn1c(Cl)c(Cl)c(C#N)c1-c1ccc(Cl)c(Cl)c1 [Example 28] |  |  |  |  |  |  |  |  |  |  |  | 0 | 0 | 9 (100% kill) | 0 | 0 | 3 (36-45% kill) | 9 (100% kill) |  |  | LEAFHOPPER Contact ([4]; 10 ppm, contact, rating scale 0-9): 0
5 | CN(C)C(=S)SCn1c(-c2ccc(Cl)cc2)c(C#N)c(Br)c1C(F)(F)F [Example 24] | 0 | 9 (100% kill) | 9 (100% kill) | 9 (100% kill) | 9 (100% kill) | 9 (100% kill) | 9 (100% kill) | 9 (100% kill) | 9 (100% kill) | 7 (76-85% kill) |  |  |  |  |  |  |  |  |  |  | OP-RESISTANT MITES Adult [1, 6]: 9 (100% kill); OP-RESISTANT MITES Nymph ([1]; 10 ppm, rating after 5 days): 0; OP-RESISTANT MITES Adult [1, 7]: 9 (100% kill); OP-RESISTANT MITES Adult [1, 8]: 0; LEAFHOPPER Contact [4, 6]: 0; LEAFHOPPER Contact [4, 7]: 9 (100% kill)
6 | FC(F)(F)c1c(Br)c(-c2ccc(Cl)c(Cl)c2)n(CSC2=NCCCN2)c1C(F)(F)F [Example 17] |  |  |  | 9 (100% kill) | 9 (100% kill) | 9 (100% kill) | 9 (100% kill) | 9 (100% kill) | 9 (100% kill) |  | 7 (76-85% kill) | 0 | 0 | 5 (56-65% kill) | 0 | 0 | 0 | 7 (76-85% kill) | 0 | 0 | OP-RESISTANT MITES Nymph [1, 18]: 0
7 | CN(C)C(=S)SCn1c(Cl)c(C#N)c(Cl)c1-c1ccc(Cl)c(Cl)c1 [Example 36] |  |  |  |  |  |  |  |  |  |  | 7 (76-85% kill) | 0 | 0 | 6 (66-75% kill) | 0 | 0 | 0 | 0 | 0 | 0 | OP-RESISTANT MITES Nymph [1, 18]: 0
8 | N#Cc1c(Br)c(C(F)(F)F)n(CSC2=NCCN2)c1-c1ccc(Cl)cc1 [Example 7] | 0 | 9 (100% kill) | 0 | 9 (100% kill) | 9 (100% kill) | 9 (100% kill) | 9 (100% kill) | 9 (100% kill) | 9 (100% kill) | 0 |  |  |  |  |  |  |  |  |  |  | OP-RESISTANT MITES Adult [1, 6]: 9 (100% kill); OP-RESISTANT MITES Nymph ([1]; 10 ppm, rating after 5 days): 0; OP-RESISTANT MITES Adult [1, 7]: 9 (100% kill); OP-RESISTANT MITES Adult [1, 8]: 9 (100% kill); OP-RESISTANT MITES Nymph ([1]; 300 ppm, rating after 5 days): 0
9 | N=C(N)SCn1c(-c2ccc(Cl)c(Cl)c2)c(Br)c(C(F)(F)F)c1C(F)(F)F [Example 18] |  |  |  | 0 | 0 | 9 (100% kill) | 9 (100% kill) | 9 (100% kill) | 9 (100% kill) |  | 9 (100% kill) | 0 | 0 |  | 0 | 0 | 0 | 0 | 0 | 9 (100% kill) | OP-RESISTANT MITES Nymph [1, 18]: 0
10 | CC(C)OC(=S)SCn1c(-c2ccc(Cl)cc2)c(C#N)c(Br)c1C(F)(F)F [Example 30] |  |  |  | 9 (100% kill) | 9 (100% kill) | 9 (100% kill) | 9 (100% kill) | 9 (100% kill) | 9 (100% kill) |  | 9 (100% kill) | 0 | 0 |  | 3 (36-45% kill) | 9 (100% kill) |  | 9 (100% kill) | 9 (100% kill) | 9 (100% kill) | 

From patent publication EP0545103A1, “Insecticidal, acaricidal and molluscicidal 1-(substituted) thioalkylpyrroles” (priority 1991, dated 1993)
